Experimental data as given in US7855290B2, “Pyridine derivatives and pyrimidine derivatives (3)” (Eisai R&D Management Co., Ltd., priority 2005, dated 2010).

Each compound was assayed against T1, HGFR (Homo sapiens, UniProt P08581) (assay: Inhibitory activity against the HGFR autophosphorylation using ELISA (MKN-45 cells)). Conditions: 1 hr with test substance.
T1 construct: endogenous in cells; host or cells: MKN-45 human gastric cancer cells
Format: cell-based
Summary of the method: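 HGFR autophosphorylation measured by sandwich ELISA: anti-phosphotyrosine PY20 capture, anti-HGFR detection, HRP secondary, TMB read at 450 nm. Lysates came from MKN-45 cells given test substance for 1 h at 37° C in 1% FBS RPMI1640. Percent activity normalised between no-compound extract and lysis buffer alone.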

T1 sequence (P08581 25-1390): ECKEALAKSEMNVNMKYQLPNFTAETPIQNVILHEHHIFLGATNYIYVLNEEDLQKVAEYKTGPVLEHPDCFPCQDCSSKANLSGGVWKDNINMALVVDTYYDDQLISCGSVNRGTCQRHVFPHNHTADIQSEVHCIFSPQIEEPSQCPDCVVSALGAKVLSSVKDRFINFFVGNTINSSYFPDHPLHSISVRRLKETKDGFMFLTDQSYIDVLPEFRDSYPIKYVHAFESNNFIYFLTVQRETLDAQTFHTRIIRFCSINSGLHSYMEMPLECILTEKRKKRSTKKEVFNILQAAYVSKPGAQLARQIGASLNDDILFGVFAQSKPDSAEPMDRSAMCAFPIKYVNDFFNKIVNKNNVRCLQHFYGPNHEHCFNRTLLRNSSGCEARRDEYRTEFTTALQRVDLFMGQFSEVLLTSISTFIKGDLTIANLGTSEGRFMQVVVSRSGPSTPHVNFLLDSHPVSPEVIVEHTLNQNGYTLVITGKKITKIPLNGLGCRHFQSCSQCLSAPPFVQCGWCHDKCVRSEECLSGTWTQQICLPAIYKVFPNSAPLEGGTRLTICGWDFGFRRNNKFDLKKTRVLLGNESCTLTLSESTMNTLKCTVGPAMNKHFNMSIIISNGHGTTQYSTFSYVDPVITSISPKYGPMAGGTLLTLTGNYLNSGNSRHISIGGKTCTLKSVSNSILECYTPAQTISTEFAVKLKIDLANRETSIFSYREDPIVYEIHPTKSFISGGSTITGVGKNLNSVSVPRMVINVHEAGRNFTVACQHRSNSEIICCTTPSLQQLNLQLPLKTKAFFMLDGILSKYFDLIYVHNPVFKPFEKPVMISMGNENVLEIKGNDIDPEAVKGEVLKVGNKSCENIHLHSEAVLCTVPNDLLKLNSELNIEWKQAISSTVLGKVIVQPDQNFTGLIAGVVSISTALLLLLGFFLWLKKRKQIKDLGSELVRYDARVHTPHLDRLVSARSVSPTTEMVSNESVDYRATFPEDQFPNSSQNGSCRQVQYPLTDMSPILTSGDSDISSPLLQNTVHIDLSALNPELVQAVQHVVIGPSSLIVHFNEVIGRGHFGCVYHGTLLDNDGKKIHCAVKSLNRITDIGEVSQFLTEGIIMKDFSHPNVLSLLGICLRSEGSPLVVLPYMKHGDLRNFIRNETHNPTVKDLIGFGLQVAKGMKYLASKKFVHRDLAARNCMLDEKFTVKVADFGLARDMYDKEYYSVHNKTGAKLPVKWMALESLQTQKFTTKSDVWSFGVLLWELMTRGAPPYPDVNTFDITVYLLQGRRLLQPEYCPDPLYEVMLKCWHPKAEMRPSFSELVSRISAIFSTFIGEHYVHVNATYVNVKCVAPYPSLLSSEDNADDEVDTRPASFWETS

| Compound | IC50 [nM] |
| --- | --- |
| CN(C)CCN1CCN(C(=O)Nc2cc(Oc3ccc(NC(=O)C4(C(=O)Nc5ccc(F)cc5)CC4)c(F)c3)ccn2)CC1 [Example 2, N-[4-({2-[({4-[2-(Dimethylamino)ethyl]piperazin-1-yl}carbonyl)amino]pyridin-4-yl}oxy)-2-fluorophenyl]-N′-(4-fluorophenyl)cyclopropane-1,1-dicarboxamide] | 21 |
| CN(C)CC1CCN(C(=O)Nc2cc(Oc3ccc(NC(=O)C4(C(=O)Nc5ccc(F)cc5)CC4)c(F)c3)ccn2)CC1 [Example 8, N-[4-({2-[({4-[(Dimethylamino)methyl]piperidin-1-yl}carbonyl)amino]pyridin-4-yl}oxy)-2-fluorophenyl]-N′-(4-fluorophenyl)cyclopropane-1,1-dicarboxamide] | 14 |
| COC1CN(C(=O)Nc2cc(Oc3ccc(NC(=O)C4(C(=O)Nc5ccc(F)cc5)CC4)cc3F)ccn2)C1 [Example 79] | 16 |
| O=C(Nc1cc(Oc2cc(F)c(NC(=O)C3(C(=O)Nc4ccc(F)cc4)CC3)cc2F)ncn1)N1CC(CO)C1 [Example 99, N-(2,5-Difluoro-4-{[4-({[3-(hydroxymethyl)azetidin-1-yl]carbonyl}amino)pyrimidin-6-yl]oxy}phenyl)-N′-(4-fluorophenyl)cyclopropane-1,1-dicarboxamide] | 14 |
| CN1CCN(C2CCN(C(=O)Nc3cc(Oc4ccc(NC(=O)C5(C(=O)Nc6ccc(F)cc6)CC5)cc4F)ccn3)CC2)CC1 [Example 20, N-(3-Fluoro-4-{[2-({[-4-(4-methylpiperazin-1-yl)piperidin-1-yl]-carbonyl}amino)pyridin-4-yl]oxy}phenyl)-N′-(4-fluorophenyl)cyclopropane-1,1-dicarboxamide] | 22 |
| CN(C)C1CN(C(=O)Nc2cc(Oc3ccc(NC(=O)C4(C(=O)Nc5ccc(F)cc5)CC4)c(F)c3)ccn2)C1 [Example 76, N-(4-{[2-({[3-(Dimethylamino)azetidin-1-yl]carbonyl}amino)pyridin-4-yl]oxy}-2-fluorophenyl)-N′-(4-fluorophenyl)cyclopropane-1,1-dicarboxamide] | 30 |
| CN(C)[C@@H]1CCN(C(=O)Nc2cc(Oc3ccc(NC(=O)C4(C(=O)Nc5ccccc5)CC4)c(F)c3)ccn2)C1 [Example 59, N-(4-{[2-({[(3R)-3-(Dimethylamino)pyrrolidin-1-yl]carbonyl}amino)pyridin-4-yl]oxy}-2-fluorophenyl)-N′-phenylcyclopropane-1,1-dicarboxamide] | 16 |
| CN1CCN(C2CCN(C(=O)Nc3cc(Oc4ccc(NC(=O)C5(C(=O)Nc6ccc(F)cc6)CC5)cc4)ccn3)CC2)CC1 [Example 32, N-(4-Fluorophenyl)-N′-(4-{[2-({[4-(4-methylpiperazin-1-yl)piperidin-1-yl]carbonyl}amino)pyridin-4-yl]oxy}phenyl)cyclopropane-1,1-dicarboxamide] | 15 |
| CN(C)[C@H]1CCN(C(=O)Nc2cc(Oc3ccc(NC(=O)C4(C(=O)Nc5ccc(F)cc5)CC4)c(F)c3)ccn2)C1 [Example 46, N-(4-{[2-({[(3S)-3-(Dimethylamino)pyrrolidin-1-yl]carbonyl}amino)pyridin-4-yl]oxy}-2-fluorophenyl)-N′-(4-fluorophenyl)cyclopropane-1,1-dicarboxamide] | 19 |
